# Values joined by “and” are separate entries in the source; they are usually repeats but may differ in a detail not shown here. Identical values can stand only once. Like-named read-outs stand apart in the source and are kept apart here.
# Tests used:
# [1] = tested on: inflammatory cytokines IL2, IFN-γ, TNF-α; conditions: reference [9]; cited from earlier work
# [2] = tested on: influenza A H5N1 Duck/MN/1525/81 virus; conditions: mouse, in vivo; cited from earlier work
# [3] = tested on: influenza A H5N1 Duck/MN/1525/81 virus; parameters: species or system BALB/c mice; conditions: mouse, in vivo
# [4] = tested on: H1N1/A/California/04/09 influenza virus; parameters: species or system BALB/c mice; conditions: mouse, in vivo
# [5] = tested on: H1N1/A/California/04/09 influenza virus; test: Body weight of mice in lethal H1N1 influenza infection; format: in vivo, BALB/c mice; conditions: FIG. 3A, 3B
# [6] = tested on: cytokine and chemokine levels in lungs of mice infected with H5N1 influenza virus; parameters: species or system BALB/c mice; conditions: mouse, in vivo
# H5N1 influenza virus = tested on: H5N1 influenza virus; parameters: species or system BALB/c mice; conditions: mouse, in vivo
compound,measurement,setting,value
SNGTIIHVK [p5TA],biological activity compared with p2TA,[1],biological activity similar to that of p2TA
"CCOC(=O)C1=C[C@@H](OC(CC)CC)[C@H](NC(C)=O)[C@@H](N)C1 [Oseltamivir, reference compound]",survival routinely yielded by this Oseltamivir dose,[2],10-30%
same,survival,[3],70% and 50%
same,survival,[4],30%
HKGLDSAV [p3TA],biological activity compared with p2TA,[1],biological activity similar to that of p2TA
YVNQTDIY [p4TA],biological activity compared with p2TA,[1],biological activity similar to that of p2TA
(D-Ala)-SPMLVAYD-(D-Ala) (XSPMLVAYDX; D-Ala at both termini; (D-A)-p2TA-(D-A); (1)..(1) X equals to D-Ala; (10)..(10) X equals to D-Ala),recovery from infection-induced weight loss,"[5]; dose-dependent, after day 8",partial recovery from infection-induced weight loss
same,weight gain by day 17,"[5]; p2TA 10 μg per mouse, Ribavirin 75 mg/kg i.p.",~20%
same,IFN-γ level in lungs,[6],significantly reduce
same,IL-1α level in lungs,[6],significantly reduce
same,IL-1β level in lungs,[6],significantly reduce
same,IL-6 level in lungs,[6],significantly reduce
same,IL-10 level in lungs,[6],did not significantly reduce
same,monocyte chemoattractant protein-1 (MCP-1) level in lungs,[6],significantly reduce
same,arterial oxygen saturation level,H5N1 influenza virus,significantly improved
same,oxygen saturation (lung function),H5N1 influenza virus,significant improvement in lung function
same,prolongation of survival over untreated control,[3],"moderate, dose-dependent prolongation of survival"
same,protection,[3],no protection
same,effect on death,[3]; ip,delayed death
same,survival,[3]; ip,30%
same,protection,[4],did not prove protective

# — US11304989B2, “Peptides for use in the treatment of viral infections” (priority 2017, dated 2022)
